Laboratory results reported in patent US20040044046A1, “Stability of lipoic acid” (priority 2002, published 2004).

Tests used:
[1] = reduced form with two -SH groups; cited from earlier work
[2] = Storage stability of the nicotinamide lipoate crystalline powder, followed by repeated infrared spectrophotometry; format: physicochemical
From the text: A small quantity of the powder as a mineral oil mull spread was spread on NaCl polished crystal plates. The plate was placed in a Beckman Infrared Spectrophotometer AccuLab 2 grating machine, linear in wave number.

[3] = can degrade under some warehousing conditions; cited from earlier work

O=C(O)CCCC[C@@H](S)CCS (racemic) [DHLA, dihydrolipoate]
Oxidation potential [1]: −0.29 V

NC(=O)c1cccnc1.O=C(O)CCCCC1CCSS1 (stereo not shown) [Example 1]
Change in crystal form or chemical composition on standing ([2]; ambient conditions (light and temperature) for over a year): essentially no change
Infrared spectrum on repeat spectrophotometry compared with initial spectrum ([2]; mineral oil mull on NaCl plates, repeated at about 3 and 17 months, ambient conditions (light and temperature)): essentially the same

O=C(O)CCCC[C@@H]1CCSS1 [R-LA, R-α-lipoic acid]
Temperature above which unstable [3]: above 40 °C
